Assay results reported in US3936463A, “Benzomorphanes” (priority 1972, dated 1976).

How the values were obtained:
Morphine-dependent rats [1] = experiment: Morphine replacement action (elimination of withdrawal symptoms) in morphine-dependent rats; type: in vivo, rat; details: grade, scale not defined
Procedure: (§1) The numbering of the compounds is the same as the numbering of the preparative examples. […] The ED50 and LD50 were calculated relative to the base.

Morphine-dependent rats [2] = experiment: Morphine-antagonistic action (provocation of withdrawal symptoms) in morphine-dependent rats; type: in vivo, rat; details: grade, scale not defined
Procedure: as §1

rat tails = experiment: animal or person; details: for ED50: Rattus norvegicus, sc, read-out: Analgesic action in heat radiation test on rat tails, ED 50; for Therapeutic index LD 50 / ED 50 / Analgesic action in heat radiation test on rat tails, ED 50: rats, s.c.; for Therapeutic index LD 50 / ED 50: calculated from LD 50 and ED 50; for Analgesic action in heat radiation test on rat tails, ED 50: calculated relative to the base
Procedure: as §1

[3] = system: Morphine-dependent monkeys; experiment: Morphine-antagonistic action (provocation of withdrawal symptoms) in morphine-dependent monkeys; type: in vivo, monkey; details: grade, scale not defined
Procedure: as §1

in vivo = details: rat, sc
Procedure: as §1

[4] = system: Morphine-dependent monkeys; experiment: Morphine-replacement action (elimination of withdrawal symptoms) in morphine-dependent monkeys; type: in vivo, monkey; details: grade, scale not defined
Procedure: as §1

Row | Structure (SMILES) | Morphine replacement action (elimination of withdrawal symptoms) (Morphine-dependent rats [1]) | Morphine-antagonistic action (provocation of withdrawal symptoms) (Morphine-dependent rats [2]) | ED50 (rat tails) [mg/kg] | Morphine-antagonistic action (provocation of withdrawal symptoms) [3] | Therapeutic index LD 50 / ED 50 (rat tails) | LD50 (in vivo) [mg/kg] | Analgesic action in heat radiation test on rat tails, ED 50 (rat tails) [mg/kg] | Morphine-replacement action (elimination of withdrawal symptoms) [4]
1 | C/C=C/C(=O)OCCCOc1ccc2c(c1)C1(CC)CCN(CC3CC3)C(C2)C1C (stereo not drawn) [Example 4d, 2-Cyclopropylmethyl-5-ethyl-9-methyl-2'-[3-crotonoyloxy-propoxy-(1)]-6,7-benzomorphan] | 0 | 2 | 0.35 | 3 | – | – | – | –
2 | CC(=O)OCCCOc1ccc2c(c1)C1(C)CCN(CC3CC3)C(C2)C1C (stereo not drawn) [Example 7, 2-Cyclopropylmethyl-5,9-dimethyl-2'-[3-acetoxypropoxy-(1)]-6,7-benzomorphan] | 0 | 1 | 1.6 | – | ~ 258 | ~400 | – | –
3 | CC(C)=CCN1CCC2(C)c3cc(O)ccc3CC1C2C (stereo not drawn) [Pentazocine, reference compound] | 1 | 2 | 4.8 | 2 | 29 | 140 | – | –
4 | CN1CC[C@]23c4c5ccc(O)c4O[C@H]2[C@@H](O)C=C[C@H]3[C@H]1C5 [Morphine, reference compound] | – | – | – | – | – | – | 1.78 | –
5 | CCC12CCN(CC3CC3)C(Cc3ccc(OCCCOC(=O)C(C)(C)C)cc31)C2C (stereo not drawn) [Example 4a, 2-Cyclopropylmethyl-5-ethyl-9-methyl-2'-[3-pivaloyloxy-propoxy-(1)]-6,7-benzomorphan] | 0 | 1 | 0.97 | – | > 515 | > 500 | – | –
6 | CCC12CCN(CC3CC3)C(Cc3ccc(OCC(C)COC(C)=O)cc31)C2C (stereo not drawn) [Example 6a, 2-Cyclopropylmethyl-5-ethyl-9-methyl-2'-[3-acetoxyisobutoxy-(1)]-6,7-benzomorphan] | – | – | 0.42 | 3 | – | – | – | –
7 | CCC(=O)OCCC(C)COc1ccc2c(c1)C1(CC)CCN(CC3CC3)C(C2)C1C (stereo not drawn) [Example 18] | – | – | – | 2 | – | – | 1.36 | –
8 | CCC12CCN(CC3CC3)C(Cc3ccc(OCCCOC(C)=O)cc31)C2C (stereo not drawn) [Example 1, 2-Cyclopropylmethyl-5-ethyl-9-methyl-2'-[3-acetoxypropoxy-(1)]-6,7-benzomorphan] | 0 | 2 | 0.42 | 1-2 | 838 | 352 | – | 0
9 | CCC12CCN(CC3CC3)C(Cc3ccc(OCCCOC(=O)COc4ccccc4)cc31)C2C (stereo not drawn) [Example 21a, 2-Cyclopropylmethyl-5-ethyl-9-methyl-2'-[3-phenoxyacetoxypropoxy-(1)]-6,7-benzomorphan] | – | – | 1.2 | 2 | – | – | – | –
10 | CCOC(=O)N(C)C(=O)OCCCOc1ccc2c(c1)C1(CC)CCN(CC3CC3)C(C2)C1C (stereo not drawn) [Example 23, 2-cyclopropylmethyl-5-ethyl-9-methyl-2'-[3-N-ethoxycarbonyl-N-methyl-carbamoyloxypropoxy-(1)]-6,7-benzomorphan] | – | – | 1.2 | 2 | – | – | – | –
11 | CCC12CCN(CC3CC3)C(Cc3ccc(OCCCOC(=O)c4cccnc4)cc31)C2C (stereo not drawn) [Example 20] | – | – | 1.2 | 1 | – | – | – | –
12 | CCOC(=O)C1(c2ccccc2)CCN(C)CC1 [Pethidine, reference compound] | – | – | 5.7 | – | 20 | 113 | – | –
13 | CCC12CCN(CC3CC3)C(Cc3ccc(OCCCOC(=O)c4ccccc4)cc31)C2C (stereo not drawn) [Example 4e, 2-Cyclopropylmethyl-5-ethyl-9-methyl-2'-[3-benzoyloxy-propoxy-(1)]-6,7-benzomorphan] | – | – | 0.42 | 2 | – | – | – | –
14 | C/C=C/C(=O)OCC(C)COc1ccc2c(c1)C1(CC)CCN(CC3CC3)C(C2)C1C (stereo not drawn) [Example 6b, 2-Cyclopropylmethyl-5-ethyl-9-methyl-2'-[3-crotonoyloxyisobutoxy-(1)]-6,7-benzomorphan] | – | – | 0.31 | 3 | – | – | – | –
15 | CCC12CCN(CC3CC3)C(Cc3ccc(OC(C)(C)COC(C)=O)cc31)C2C (stereo not drawn) [Example 11, 2-Cyclopropylmethyl-5-ethyl-9-methyl-[1-acetoxy-2-methyl-propoxy-(2)]-6,7-benzomorphan] | – | – | 0.47 | 1 | – | – | – | –
16 | CCC12CCN(CC3CC3)C(Cc3ccc(OCCCCOC(=O)C(C)C)cc31)C2C (stereo not drawn) [Example 10b, 2-Cyclopropylmethyl-5-ethyl-9-methyl-2'-[4-isobutyryloxybutoxy-(1)]-6,7-benzomorphan] | 0 | 1 | 0.42 | – | > 1,190 | > 500 | – | –
17 | CCC12CCN(CC3CC3)C(Cc3ccc(OCCCCOC(C)=O)cc31)C2C (stereo not drawn) [Example 9, 2-Cyclopropylmethyl-5-ethyl-9-methyl-2'-[4-acetoxybutoxy-(1)]-6,7-benzomorphan] | 0-1 | 1 | 0.61 | – | > 820 | > 500 | – | –
18 | CCC12CCN(CC3CC3)C(Cc3ccc(OCCCOC(=O)C(C)C)cc31)C2C (stereo not drawn) [Example 2b, 2-Cyclopropylmethyl-5-ethyl-9-methyl-2'-[3-isobutyryloxy-propoxy-(1)]-6,7-benzomorphan] | 0 | 1 | 1 | – | ~ 300 | ~300 | – | –
19 | CCC(=O)OCCCOc1ccc2c(c1)C1(CC)CCN(CC3CC3)C(C2)C1C (stereo not drawn) [Example 2a, 2-Cyclopropylmethyl-5-ethyl-9-methyl-2'-[3-propionyloxy-propoxy-(1)]-6,7-benzomorphan] | 0 | 2 | 0.49 | 2 | 604 | 296 | – | 0
20 | COc1ccc2c3c1O[C@H]1[C@@H](O)C=C[C@H]4[C@@H](C2)N(C)CC[C@@]341 [Codeine, reference compound] | 3 | 0 | 4.5 | – | 51 | 202 | – | 3
21 | CCC(=O)OCCCCOc1ccc2c(c1)C1(CC)CCN(CC3CC3)C(C2)C1C (stereo not drawn) [Example 10a] | 0 | 2 | 0.62 | – | > 806 | > 500 | – | –
22 | CCC12CCN(CC3CC3)C(Cc3ccc(OCC(C)CCOC(C)=O)cc31)C2C (stereo not drawn) [Example 17, 2-Cyclopropylmethyl-5-ethyl-9-methyl-2'-[4-acetoxy-2-methylbutoxy-(1)]-6,7-benzomorphan] | – | – | – | 2 | – | – | 0.96 | –
23 | CCC(=O)OCCCOc1ccc2c(c1)C1(C)CCN(CC3CC3)C(C2)C1C (stereo not drawn) [Example 8, 2-Cyclopropylmethyl-5-9-dimethyl-2'-[3-propionyloxypropoxy-(1)]-6,7-benzomorphan] | 1 | 1 | 1.6 | – | ~ 262 | ~425 | – | –
